Laboratory results taken from patent US6541463B1, “Inhibitors of type 5 and type 3 17β-hydroxysteroid dehydrogenase and methods for their use” (Endorecherche, Inc., priority 1998, dated 2003).

Experiments:
progesterone receptor = assay: Progesterone receptor assay: inhibition of [3H]R5020 binding, uterine cytosol; set-up: species or system rat
Protocol: The manner in which the percentage of inhibition is determined is described in “Other Tests; E-Progesterone Receptor Assay”. Lower numbers are desirable.
[17α-methyl-^3H]-promegestone (R5020) (84 Ci/mmol) and the corresponding unlabeled compound were purchased from New England Nuclear (Lachine, Québec, Canada). All other chemicals were of analytical grade.
Stock solutions of the unlabeled steroids were kept at 4° C. in ethanol. The desired steroid solutions were then prepared by appropriate dilution in buffer B (10 mM Tris-HCl, 1.5 mM EDTA, 10 mM α-monothioglycerol, pH 7.4) containing 30% ethanol.
Female Sprague-Dawley rats weighing 200-300 g were obtained from Charles-River Inc. (St-Constant, Québec, Canada). The rats were gonadectomized under general anesthesia (Isoflurane) and killed by cervical dislocation 24 hours later. The uteri are rapidly removed, dissected free from adhering tissue and frozen on dry-ice. Tissues were kept at −80° C. until use.
All procedures were performed at 4° C. Tissues were pulverized frozen in dry ice with a Thermovac pulverizer. The samples were then homogenized in 10 vol (w/v) of buffer A (25 mM Tris-HCl, 1.5 mM EDTA, 10 mM α-monothioglycerol, 10% glycerol, 10 mM sodium molybdate, pH 7.4) using a Polytron PT-10 homogenizer (Brinkmann Instruments, Canada) at a setting of 5 for two periods of 10 sec, with intervals of 10 sec for cooling. The homogenate was then centrifuged at 105,000×g for 90 min. The supernatant was used immediately for assay.
Progesterone binding was measured using the dextran-coated charcoal adsorption technique. […] Each concentration was done in triplicate. Assay was ended with 300 μl of DCC (1% Norit A and 0.1% Dextran T-70 in Buffer B). After 10 min of incubation, tubes were centrifuged at 2,000×g for 10 min. and decanted in vials with 6 ml of BCS liquid scintillation (New England Nuclear, Dupont). The radioactivity was measured in a Beckman counter at a counting efficiency of 35%.

androgen receptor = biological target: T1, androgen receptor (Rattus norvegicus, UniProt P15207); assay: Androgen receptor (AR) assay: inhibition of [3H]R1881 binding, prostate cytosol
T1 construct: from tissue; host or cells: ventral prostate cytosol of gonadectomized male Sprague-Dawley rats
T1 sequence (P15207 1-902): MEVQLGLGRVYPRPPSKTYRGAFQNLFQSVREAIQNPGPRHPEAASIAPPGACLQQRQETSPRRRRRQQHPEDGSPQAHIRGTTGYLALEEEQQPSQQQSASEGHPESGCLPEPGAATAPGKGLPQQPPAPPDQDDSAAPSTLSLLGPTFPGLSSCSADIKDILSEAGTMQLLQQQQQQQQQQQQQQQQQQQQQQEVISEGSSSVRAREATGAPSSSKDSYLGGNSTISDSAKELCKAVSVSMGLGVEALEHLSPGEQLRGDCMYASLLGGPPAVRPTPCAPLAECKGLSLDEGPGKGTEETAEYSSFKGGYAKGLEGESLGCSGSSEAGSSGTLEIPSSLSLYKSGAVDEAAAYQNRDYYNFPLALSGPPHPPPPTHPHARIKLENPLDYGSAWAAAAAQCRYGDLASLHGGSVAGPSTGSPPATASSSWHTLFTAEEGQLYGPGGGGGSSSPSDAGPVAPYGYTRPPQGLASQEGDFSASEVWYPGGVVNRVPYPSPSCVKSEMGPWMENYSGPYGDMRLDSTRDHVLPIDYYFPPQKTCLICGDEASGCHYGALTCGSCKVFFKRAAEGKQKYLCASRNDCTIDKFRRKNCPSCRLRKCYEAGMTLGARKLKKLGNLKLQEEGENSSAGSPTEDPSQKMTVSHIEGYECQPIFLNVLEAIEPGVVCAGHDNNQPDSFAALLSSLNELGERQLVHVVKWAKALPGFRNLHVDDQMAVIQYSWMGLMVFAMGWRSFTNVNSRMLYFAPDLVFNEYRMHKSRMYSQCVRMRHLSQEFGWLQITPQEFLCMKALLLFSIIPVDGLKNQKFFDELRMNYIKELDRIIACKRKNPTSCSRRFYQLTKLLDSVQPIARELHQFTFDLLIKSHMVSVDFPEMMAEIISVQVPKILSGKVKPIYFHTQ
Protocol: The manner in which the percentage of inhibition is determined is described in “Other Tests; D-Androgen Receptor (AR) Assays”. Lower numbers are desirable.
Male Sprague-Dawley rats (Crl: CD(SD)Br) weighing 200-300 g were obtained from Charles-River Inc. (St-Constant, Québec, Canada). The rats were gonadectomized under general anesthesia (Isoflurane) and killed by cervical dislocation 24 hours later. The ventral prostates were rapidly removed, dissected free from adhering tissue and frozen on dry-ice. Prostates were kept at −80° C. until assay.
All subsequent steps were performed at 0-4° C. Prostates were homogenized in 5 vol (wt/vol) of buffer A (25 mM Tris-HCl, 1.5 mM EDTA disodium salt, 10 mM α-monothioglycerol, 10% glycerol, and 10 mM sodium molybdate, pH 7.4), using a Polytron PT-10 homogenizer (Brinkman Instruments, Canada) at a setting of 5 for three periods of 10 sec, with intervals of 10 sec for cooling. The homogenate was then centrifuged at 105,000×g for 60 min in a Beckman L5-65 ultracentrifuge (Fullerton, Calif.).
Androgen binding was measured using the hydroxylapatite assay (HAP). In brief, the radioactive steroid [^3H]R1881 solubilized in ethanol was diluted into buffer A. Aliquots of prostate cytosol preparation (0.1 ml) were then incubated with 8 nM [^3H]R1881 (0.1 ml, ˜200,000 cpm) in the presence or absence of the indicated concentrations of unlabeled compounds (0.1 ml, prepared in buffer A containing 10% ethanol) for 16-18 h at 0-4° C. […] Unbound steroids were separated by incubation for 40 min at 0-4° C. with 0.3 ml HAP prepared in buffer P (50 mM, Tris-HCl, 10 mM KH2PO4, pH 7.4) as follows: 10 g HAP were washed with buffer P until the supernatant reached a pH of 7.4 and then following centrifugation and decantation of the supernatant, 37.5 ml of buffer P were added. After incubation with HAP and 10 minutes of centrifugation at 1,000×g, the pellet was washed 3 times with 1 ml buffer P. Thereafter, the radioactivity was extracted from the pellet by incubation at room temperature for 60 minutes with 1 ml EtOH. After centrifugation, the supernatant was decanted into a scintillation vial and the pellet was extracted again with ethanol.

Row | SMILES | % Inhibition Progesterone Receptor E^−6 (progesterone receptor; Table 4′, E^−6) | % Inhibition Progesterone Receptor E^−8 (progesterone receptor; Table 4′, E^−8) | inhibition at 1 µM (androgen receptor; Table 4′, E^−6) | inhibition at 0.01 µM (androgen receptor; Table 4′, E^−8) | % Inhibition Progesterone Receptor (progesterone receptor; E^−6) | % Inhibition Progesterone Receptor (progesterone receptor; E^−8) | other results
1 | CC1(C)CCC2(CCC3C4CCc5cc(OS(C)(=O)=O)ccc5C4CCC32C)OC1=O (stereo not shown) [EM-1365-CS] | 2% | 2% | 0% | 0% |  |  | 
2 | CN(C)C(=O)c1ccc2c(c1)CCC1C2CCC2(C)C1CCC21CCC(C)(C)C(=O)O1 (stereo not shown) [EM-1403] | 0% | 0% | 0% | 0% |  |  | 
3 | CCCC(=O)OC1(C(C)=O)CCC2C3C=C(C)C4=CC(=O)CC(C)C4(C)C3CCC21C (stereo not shown) [CS-245] |  |  |  |  | 26% | 0% | % Inhibition Androgen Receptor (androgen receptor; E^−6): 71%; % Inhibition Androgen Receptor (androgen receptor; E^−8): 5%
4 | CCOc1ccc2c(c1)CCC1C2CC[C@@]2(C)C1CC[C@@]21CCC(C)(C)C(=O)O1 (stereo partly drawn) [EM-1369, 3-Ethoxy-1,3,5(10)-estratrien-17(R)-spiro-2′-(5′,5′-dimethyl-6′-oxo)-tetrahydropyran] | 3% | 1% | 1% | 0% |  |  | 
5 | CC1(C)CCC2(CCC3C4CCc5c(cc(Cl)c(OS(C)(=O)=O)c5Cl)C4CCC32C)OC1=O (stereo not shown) [EM-1392-CS] | 2% | 2% | 0% | 0% |  |  | 
6 | CCC[C@]1(F)CC2C3C=CC4=CC(=O)CC[C@]4(C)C3CC[C@]2(C)C1=O (stereo partly shown) [EM-1183] |  |  |  |  |  |  | % Inhibition Progesterone Receptor E^−6 (progesterone receptor; E^−6): 45%; % Inhibition Progesterone Receptor E^−8 (progesterone receptor; E^−8): 9%; inhibition at 1 µM (androgen receptor; E^−6): 1%; inhibition at 0.01 µM (androgen receptor; E^−8): 0%
7 | COC(=O)CCCC(=O)O[C@]1(C(C)=O)CC[C@H]2[C@@H]3C=C(C)C4=CC(=O)CC[C@]4(C)[C@H]3CC[C@@]21C [EM-1007, 6-Methyl-4,6-pregnadien-17α-ol-3,20-dione 4′-Carbomethoxybutyrate] |  |  |  |  | 0% | 0% | % Inhibition Androgen Receptor (androgen receptor; E^−6): 0%; % Inhibition Androgen Receptor (androgen receptor; E^−8): 0%
8 | CN(C)CCOc1ccc2c(c1)CCC1C2CCC2(C)C1CCC21CCC(C)(C)C(=O)O1 (stereo not shown) [EM-1389-CS] | 0% | 3% | 0% | 0% |  |  | 
9 | C[C@]12CCC3c4ccc(O)cc4CCC3C1CC[C@@]21CCCC(=O)O1 (stereo partly drawn) [EM-919, 1,3,5(10)-estratrien-3-ol-17(R)-spiro-2′(6′-oxo)tetrahydropyran] |  |  |  |  |  |  | % Inhibition Progesterone Receptor *E^−5 (progesterone receptor; Table 4′, starred values, E^−5): 68* %; % Inhibition Progesterone Receptor *E^−7 (progesterone receptor; Table 4′, starred values, E^−7): 8* %; % Inhibition Androgen Receptor *E^−5 (androgen receptor; Table 4′, starred values, E^−5): 6* %; % Inhibition Androgen Receptor *E^−7 (androgen receptor; Table 4′, starred values, E^−7): 0* %
10 | CC(=O)O[C@]1(C(C)=O)CCC2C3C=C(C)C4=CC(=O)CC[C@]4(C)C3CC[C@@]21C (stereo partly shown) [megestrol acetate, reference compound] |  |  |  |  | 77% | 3% | % Inhibition Progesterone Receptor (progesterone receptor; * E^−5): 97* %; % Inhibition Progesterone Receptor (progesterone receptor; * E^−7): 36* %
